Experimental findings from US7803910B2, “Soluble CD164 polypeptides” (Merck Serono S.A., priority 2005, dated 2010) are described below.

The test system of data set [1] is peritoneal recruitment of macrophages. The data set is described as follows: Thioglycollate-induced leukocyte peritoneal recruitment assay. It counts as in vivo, C3H mice. To be noted: 1 mg/kg. As for the experimental part: The effect of a sCD164 variant on immune cells recruitment was tested using the thioglycollate-induced leukocyte peritoneal recruitment assay. In this example the capacity of ssCD164-Fc (SEQ ID NO: 16) to decrease monocytes/macrophage recruitment was evaluated.
Forty-eight hours after the challenge, the animals were sacrificed and the lavage of the peritoneal cavity was conducted using 2×5 ml PBS-1 mM EDTA (+4° C.). After centrifugation (10 min at 3000 rpm), the pellet was resuspended in 1 ml PBS. The peritoneal cells were counted using a Beckman/Coulter counter. Dexamethasone (1 mg/kg), the anti-inflammatory compound was used as reference positive control.

Data set [2] deals with LPS-induced TNF-α release. The data set is described as follows: LPS induced TNF-α release animal model (Example 10). Type of data set: in vivo, C3H/HeN mice. The note with it: 0.1 mg/kg, sc, 15 minutes prior to LPS; plasma 90 minutes after LPS; p<0.001.
Method: LPS(O111:B4; SIGMA) is injected (0.3 mg/kg, ip) in C3H/HeN mice (Charles River, France). Ninety minutes later blood is sampled and plasma TNF-α is determined using an ELISA kit (R&D). The CD164 variant to be tested and dexamethasone are diluted in PBS and injected (Sf-CD164 at 0.03, 0.1 and 0.3 mg/kg, iv; or dexamethasone at 0.1 mg/kg, sc) 15 minutes prior to LPS administration.
The subject of the next data set is C3H mice. In words: Concanavalin A-induced hepatitis in mice. Type of data set: in vivo. The note with it: 0.3 mg/kg, sc. From the text: Several sCD164 variants have been shown in vitro to inhibit secretion of certain cytokines by ConA-stimulated human peripheral blood mononuclear cells (PBMC), see Examples 2 and 3 above. Since cytokines play a crucial role in T-cell induced ConA induced liver hepatitis (Seino et al. 2001, Kusters, 1996; Toyonaga et al. 1994), the present model was used to further test the sCD164 variants.
Eighteen hours later, the animals were sacrificed and the blood was sampled. Serum levels of transaminases (alanine transaminase (ALAT), aspartate aminotransferase (ASAT)) were determined in serum using a clinical analyzer (Hitachi). Dexamethasone (0.3 mg/kg, sc) was used as reference.

The next data set has as its system female mice (Balb/c). In words: Dextran Sodium Sulfate-induced ulcerative colitis model. Type of data set: in vivo. As for the experimental part: The DSS model of colitis mimics some aspects of the human affection such as macrophage infiltration and up regulation of inflammatory cytokines (i.e. TNFα, IL-1p, IL-6) in the colon mucosa.
Ulcerative colitis (UC) was induced in female mice (Balb/c, 20-22 g, Elevage Janvier) by Dextran Sodium Sulfate (DSS 4%) administered in drinking water (oral route). The mice had free access to DSS during 7 days. Body weight was determined daily. The severity of the UC was assessed by a clinical score estimating the constituency of the stool (0=firm, 1=loose, 2=diarrhea) and the presence of blood (0=no blood, 1=occult blood, 2=gross rectal bleeding). Seven days after the induction of the disease, the animals were sacrificed. The length and the weight of the colon were determined and the ratio Weight/Length/100 g body weight was calculated. The spleen weight was also determined. Blood was sampled to determine serum amyloid protein (SAA) using a specific ELISA.
Test substances or vehicle (PBS/0.02% BSA) was administered at days 3, 4, 5 and 6 after the induction of the UC. Enbrel® (1 mg/kg, sc) was used as reference compound. Three studies were performed as per the following table:
In Study 3, the content of IL-1β in the colon was also measured.

The next data set relates to Balb/c mice. In words: K/BxN serum transfer model of arthritis. Type of data set: in vivo. To be noted: 10 mg/kg sc once daily, 3 days per week. As for the experimental part:
This is a passive model of arthritis, induced by serum transfer of K/B×N mice (spontaneously develop arthritis) to naïve mice. This model depends on macrophages and neutrophils. Inflammatory cytokines such as TNFα and IL-1β play an important role in the development of the disease.
Eight week old Balb/c mice (Charles River) received by iv route 150 μl of K/B×N serum (Charles McKay, Australia), containing high level of auto-antibodies against glucose-6-phosphate isomerase. They evolved severe arthritis assessed with a clinical score (0-12) evaluating the presence of swelling, erythema, edema, joint rigidity and ankylosis. The final score was the sum of scores on individual paws. The swelling of ankle, fore paw and hind paw was measure using a caliper. The clinical score and the swelling were determined every day. Fourteen days after the induction of the disease blood was sampled to determine osteocalcin and the legs were removed and fixed in formalin for histology.
Enbrel® (10 mg/kg, sc, once daily, 3 days a week) was used as reference compound.

Setting [3] is: Study 1, reference 1 mg/kg, ip (so in the source).

As for `C[C@@H]1C[C@H]2[C@@H]3CCC4=CC(=O)C=C[C@]4(C)[C@@]3(F)[C@@H](O)C[C@]2(C)[C@@]1(O)C(=O)CO` [Dexamethasone, reference compound], the “reduction of peritoneal recruitment of macrophages” value was found to be 94% in data set [1] (iv) and 61% in data set [1] (sc). Moreover, in data set [2], the “inhibition of LPS-induced TNF-α release” value stood at 72%. The “reduction of the level of serum transaminases” value with C3H mice was 96%.
With Enbrel® [reference compound], in the data set with female mice (Balb/c) (setting [3]), the body weight loss result is “not prevented”; the “colon reduction, length” value is recorded as −24%; the “colon reduction, ratio weight/length” value is listed as −29%; the “increase in serum amyloid protein A” value is on record as −37%. Moreover, the splenomegaly entry in the data set on female mice (Balb/c) (setting [3]) is reported as “not prevented”. In addition, the clinical score in the data set on female mice (Balb/c) (Study 1, reference 1 mg/kg, ip (so in the source), day 6) was −23%. For the same compound, in the data set with female mice (Balb/c) (Study 2, 1 mg/kg, sc), the “colon reduction, length” value is reported as −17%; the “colon reduction, ratio weight/length” value is −31%; the “increase in serum amyloid protein A” value is listed as −36%; the splenomegaly result is “not improved”. The clinical score in the data set with female mice (Balb/c) (Study 2, 1 mg/kg, sc, day 5) is −21%. Further, in the data set on female mice (Balb/c) (Study 3, 1 mg/kg, sc), the “colon reduction, length” value is −29%; the “colon reduction, ratio weight/length” value is −33%; the “content of IL-1β in colon” value is reported as “trended to reduce”; the “serum amyloid A protein” value is listed as “trended to reduce”. Moreover, the splenomegaly in the data set with female mice (Balb/c) (Study 3, 1 mg/kg, sc) was −27%. In the data set with female mice (Balb/c) (Study 3, 1 mg/kg, sc, day 5), the body weight loss is −83% and the clinical score is reported as −38%. In the data set on female mice (Balb/c) (Study 3, 1 mg/kg, sc, day 7), the clinical score is listed as −30%. Further, in the data set with Balb/c mice (Study 1), the “decrease of clinical score” value was 25%, the “decrease of paw swelling” value is on record as 36% and the “decrease of serum osteocalcin” value is 86%. Also, in the data set with Balb/c mice (Study 2), the “decrease of clinical score” value turned out to be 31%, the “decrease of paw swelling” value is recorded as 38% and the “decrease of serum osteocalcin” value is on record as 64%.
